Calls of active or inactive are those of the source. The calls are words filed in the database; no cut-off is given here.
Legend:
Type in all cases: cell-based
MS-G2 [1] = experiment: Inhibition of Hepatitis B virus E antigen activity in human MS-G2 cells at 5 ug/mL
[2] = Cytotoxicity against human MS-G2 cells at 20 ug/mL
MS-G2 [3] = experiment: Inhibition of Hepatitis B virus E antigen activity in human MS-G2 cells at 10 ug/mL

COc1cc(OC)c2c(c1Cc1ccc(O)cc1)CCc1cc(O)ccc1-2 [SINENSOL A]
Activity (MS-G2 [1]): inactive | Activity [2]: Active | Activity (MS-G2 [3]): inactive

COc1cc(OC)c2c(c1Cc1ccc(O)cc1)CCc1c-2ccc(O)c1CC=C(C)C [SINENSOL B]
Activity (MS-G2 [1]): inactive | Activity [2]: Active | Activity (MS-G2 [3]): inactive

COc1cc(O)c(Cc2ccc(O)cc2)c2c1-c1ccc(O)c(CC=C(C)C)c1CC2 [SINENSOL C]
Activity (MS-G2 [1]): inactive | Activity [2]: Active | Activity (MS-G2 [3]): inactive

COc1cc(O)c2c(c1Cc1ccc(O)cc1)CCc1c-2ccc2c1C=CC(C)(C)O2 [SINENSOL D]
Activity (MS-G2 [1]): inactive | Activity [2]: Active | Activity (MS-G2 [3]): inactive

COc1cc(O)c2c(c1Cc1ccc(O)cc1)CCc1c-2ccc2c1CC(C(C)(C)O)O2 (stereo not drawn) [SINENSOL E]
Activity (MS-G2 [1]): inactive | Activity [2]: Active | Activity (MS-G2 [3]): inactive

COc1cc(O)c2c(c1Cc1ccc(O)cc1)CCc1c-2cc(Cc2ccc(O)cc2)c(O)c1CC=C(C)C [SINENSOL F]
Activity (MS-G2 [1]): inactive | Activity [2]: Active | Activity (MS-G2 [3]): inactive

Source: ChEMBL document CHEMBL1155636, “Dihydrophenanthrenes from Spiranthes sinensis” (J Nat Prod, 2000)
